Experimental data: patent US5827073A, “Photoreactive peptide derivatives” (Ludwig Institute for Cancer Research, priority 1995, dated 1998)
Entries after “also recorded” stand apart in the source; their conditions may differ. Where no end group is shown, it is not given here. [ ]: non-standard residue; d: D form. IASA = not defined here; Dap = NC[C@H](N)C(=O)O

Assays:
Type in all cases: binding, human
[1] = system: HLA-A29; assay: Inhibition of HLA-A29 photoaffinity labelling on 807-02 cells by competitor peptides; settings: for inhibition of HLA-A29 photoaffinity labelling (HLA-A29 competitor activity / binding): 20-fold molar excess of competitor, FIG. 6B
Experimental: (§1) All photoaffinity labelling procedures were performed essentially as described by Luescher et al., J. Immunol., 148:1003-011 (1992); Luescher et al., Nature, 351:72-74 (1991); Romero et al., J. Exp. Med., 177:1247-1256 (1993); Luescher et al., J. Biol. Chem., 269:5574-5592 (1994); and Romero et al., J. Immunol. Methods, 171:73-84 (1994). Briefly, HLA-A1 transfected C1R cells, cultured in hygromycin containing medium, or other cell types were resuspended in DMEM medium supplemented with 0.5% fetal calf serum, 10 mM HEPES and 0.25 μg/ml human β2-microglobulin, or as specified, at 6 ×10^6 cells/ml. One ml aliquotes were incubated in 6-well plates with 20 ×10^6 cpm of peptide derivative at 26° C. for 4 hours or as specified.
(§2) After UV irradiation with a 15 W mercury fluorescence lamp with an emission maximum at 365 nm and a band width of 80 nm for 4 minutes at a lamp-sample distance of 2 cm, the cells were washed 4 times with DMEM containing 2% calf serum and 1 time with PBS. The washed cells were lysed and boiled in reducing sample buffer supplemented with MgCl2 and subjected to SDS-PAGE. Alternatively the UV irradiated samples were lysed with NP-40 detergent (0.7%) on ice in the presence of HEPES (50 mM), leupeptin (10 μg/ml), PMSF (0.1 mM), and iodoacetamide (10 MM). Immunoprecipitation of HLA molecules with immobilized W6/32 mAb (Brodsky et al., J. Immunol., 128:129-135 (1982) and SDS-PAGE analysis of the immunoprecipitate were performed as described by Luescher et al., Electrophoresis, 8:508 (1987). The gels were evaluated by autoradiography and in some experiments by densitometry as described by Luescher et al., J. Immunol., 148:1003-1011 (1992). Each labelling experiment was performed at least twice.
After UV irradiation, the cells were lysed and the immunoprecipitated HLA molecules were analyzed by SDS-PAGE and the resulting autoradiograms were evaluated by densitometry. All experiments were performed at least in triplicate. Hundred percent labelling refers to the labelling observed in the absence of a competitor peptide (FIG. 6A).

[2] = system: HLA-A1; assay: Dissociation of HLA-A1 peptide derivative complexes on C1R/A1 cells; settings: physiological conditions (37° C., no exogenous β2-microglobulin), after 6 hours
Experimental: FIG. 3 is comprised of FIG. 3A, FIG. 3B and FIG. 3C. FIG. 3A represents SDS-PAGE analysis of EADPTGDap(IASA)SY incubated with C1R/A1 cells or WT51 cells in the presence of β2-microglobulin. FIG. 3B represents SDS-PAGE where incubation was performed at 37° C. or 26° C. in the absence of presence of β2-microglobulin, and the autoradiograms were evaluated by densitometry.
This considerable increase is mainly accounted for by an accordingly less efficient peptide binding under physiological conditions (i.e., 37° C. and no exogenous β2-microglobulin) . Another difference between the human and murine system is the difference in the stability of MHC class 1-peptide complexes. On C1R/A1 cells, the dissociation of HLA-A1 peptide derivative complexes under physiological conditions was remarkably slow, and even after 6 hours of incubation less than 20% dissociation took place (FIG. 3C). Similarly slow dissociations have been reported for other HLA class I molecules (DiBrino et al., J. Immunol., 152:620-631 (1994); Tsomides et al., Proc. Natl. Acad. Sci. USA, 88:11276 (1991)). In contrast, in the murine system, i.e., the Kd, Db of Ld system, under these conditions rapid dissociations with halftimes in the range of one hour have been reported (Luescher et al., Nature, 351:72-74 (1991); Luescher et al., J. Biol. Chem., 269:5574-5582 (1994); Romero et al., 1994, supra).

[3] = system: HLA class I molecules; assay: Photoaffinity labelling of a panel of cell lines expressing different HLA class I molecules; settings: for photoaffinity labelling of 45 kDa HLA heavy chain on LG2-EBV cells: lane 11
Experimental: as §1, §2
The first 9 were HLA homozygous EBV transformed cells lines that have been described at the 10th International Histocompatibility Workshop (DuPont, Immunobiology of HLA, New York, Springer-Verlag, Vol. 1 (1987)). Workshop numbers are indicated as "ws#", and their HLA-C expression has been determined by PCR (Levine et al., Tissue Antigens, 44:174 (1994)). The heterozygous EBV transformed cell lines were derived from HLA-typed individuals. In the case of HLA-C, the serological typing was incomplete, as indicated by question marks. The remaining cell line was COS-7 cell transfected with HLA-Cw*1601. These cells were subjected to the same labelling procedure as described for FIG. 4B.

[4] = system: HLA-A1; assay: HLA-A1 photoaffinity labelling of HLA-A1 transfected C1R cells with radioiodinated peptide derivative; settings: β2-microglobulin, 26° C., UV irradiation, SDS-PAGE
Experimental: as §1, §2
To perform competition assays, ^51 Cr labelled C1R HLA-A1 transfected cells were incubated in the presence of a suboptimal concentration of the MAGE-3 peptide 168-176 with cloned HLA-A1-restricted MAGE-3-specific CTL 20/38. […] Alternatively, the radioiodinated peptide derivatives were incubated with HLA-A1 transfected C1R cells and following UV irradiation, the lysates of the washed cells were analyzed by SDS-PAGE (10%, reducing conditions).
Following incubation of these cells with the radioiodinated peptide derivatives and UV irradiation, cell lysates were analyzed by SDS-PAGE (FIG. 4B).

[5] = system: HLA-A1; assay: Inhibition of HLA-A1 photoaffinity labelling on C1R/A1 cells by competitor peptides; settings: for binding of MAGE-3 peptide variants to HLA-A1: single alanine substitutions, method not stated
[6] = system: HLA class I molecules; assay: Photoaffinity labelling of a panel of cell lines expressing different HLA class I molecules; settings: COS-7 transfectant
[7] = labelling with Dap(IASA)-ADPTGHSY on C1R HLA-A1 transfectants, 100-fold molar excess of competitor, densitometry

MAGE-3 variant substitution in position 2 with isoleucine: MAGE-3 peptide 168-176 with position 2 replaced by isoleucine (EIDPIGHLY; UniProt P43357 168-176, looked up, variant V169I)
inhibition of HLA-A29 photoaffinity labelling (HLA-A29 competitor activity / binding) [1]: increased

Glu Ala Asp Pro Thr Gly Dap(IASA) Ser Tyr (EADPTG[Dap](IASA)SY; reading uncertain; also: radioiodinated, printed as Glu Ala Asp Pro Thr Gly Dap(IASA) Ser Tyr) [SEQ ID NO: 1]
dissociation of HLA-A1 peptide derivative complexes [2]: less than 20%
HLA labelling on eight other EBV cell lines ([3]; eight other EBV cell lines expressing different HLA-A, B and C molecules): Equally negative
HLA labelling on TEM cells ([3]; homozygous EBV transformed line TEM, HLA-A26, B-38): No detectable HLA labelling
HLA labelling on WT51 cells ([3]; homozygous EBV transformed line WT51, HLA-A23, B65): No detectable HLA labelling
HLA-A1 photoaffinity labelling (45 kDa HLA-A1 heavy chain) [4]: corresponds to the HLA-A1 heavy chain
HLA-A1 photoaffinity labelling (45 kDa HLA-A1 heavy chain) ([4]; listed as derivative containing Dap(IASA) in position 7): efficiently labelled

tyrosinase peptide 368-376: HLA-A2-restricted tyrosinase peptide 368-376 (IYMNGTMSQ; UniProt P14679 368-376, looked up, fragment) [reference compound]
inhibition of HLA-A29 photoaffinity labelling ([1]; labelling with Dap(IASA)-ADPTGHSY on 807-02 cells, 100-fold molar excess of competitor, densitometry): no detectable inhibition
inhibition of HLA-A1 photoaffinity labelling [5, 7]: No significant inhibition

MAGE-3 variant containing Ala in position 9: MAGE-3 peptide 168-176 with Tyr-176 replaced by alanine (EVDPIGHLA; UniProt P43357 168-176, looked up, variant Y176A)
inhibition of HLA-A29 photoaffinity labelling (HLA-A29 competitor activity / binding) [1]: 13%
binding of MAGE-3 peptide variants to HLA-A1 [5]: substantially impaired its binding

MAGE-3 variant alanine substitution of Val-169: MAGE-3 peptide 168-176 with Val-169 (position 2) replaced by alanine (EADPIGHLY; UniProt P43357 168-176, looked up, variant V169A)
inhibition of HLA-A29 photoaffinity labelling (HLA-A29 competitor activity / binding) [1]: to a lesser degree
inhibition of HLA-A29 photoaffinity labelling (HLA-A29 competitor activity / binding) ([1]; listed as MAGE-3 variant substitution in position 2 with alanine): impaired

Dap(IASA)-ADPTGHSY ([Dap](IASA)ADPTGHSY; reading uncertain)
HLA labelling on COS-7 cells transfected with HLA-A1 [6]: displayed HLA labelling
HLA labelling on COS-7 cells transfected with HLA-A29 [6]: displayed HLA labelling
HLA labelling on 806-04 cells ([3]; 806-04 (HLA-A29+)): similarly efficient HLA labelling
photoaffinity labelling of 45 kDa HLA heavy chain on 807-02 cells ([3]; 807-02 (HLA-A29+), lane 15): significant photoaffinity labelling; also recorded: similarly efficient HLA labelling
photoaffinity labelling of 45 kDa HLA heavy chain on BM21 cells ([3]; EBV transformed line BM21 (HLA-A1), lane 1): significant photoaffinity labelling
photoaffinity labelling of 45 kDa HLA heavy chain on MOU cells ([3]; EBV transformed line MOU (HLA-A*2902, HLA-B*4403), lane 4): significant photoaffinity labelling
photoaffinity labelling of 45 kDa HLA heavy chain on LG2-EBV cells [3]: significant photoaffinity labelling
photoaffinity labelling of 45 kDa HLA heavy chain on LG2-EBV cells ([3]; listed as SEQ ID NO: 8): weak labelling
photoaffinity labelling of 45 kDa material on the other lines tested ([3]; lanes 2, 3, 5-10, 12-14): not detectable
HLA-A1 photoaffinity labelling (45 kDa HLA-A1 heavy chain) [4]: efficiently bound to and photoaffinity labelled HLA-A1
HLA-A1 photoaffinity labelling (45 kDa HLA-A1 heavy chain) ([4]; listed as derivative containing Dap(IASA) in position 1): efficiently labelled

MAGE-3 variant alanine substitution of Ile-172: MAGE-3 peptide 168-176 with Ile-172 replaced by alanine (EVDPAGHLY; UniProt P43357 168-176, looked up, variant I172A)
inhibition of HLA-A29 photoaffinity labelling (HLA-A29 competitor activity / binding) [1]: markedly reduced the binding

MAGE-3 variant alanine substitution of Asp-170: MAGE-3 peptide 168-176 with Asp-170 replaced by alanine (EVAPIGHLY; UniProt P43357 168-176, looked up, variant D170A)
binding of MAGE-3 peptide variants to HLA-A1 [5]: substantially impaired its binding

MAGE-3 variant Tyr-176 replaced with phenylalanine: MAGE-3 peptide 168-176 with C-terminal tyrosine replaced by phenylalanine (EVDPIGHLF; UniProt P43357 168-176, looked up, variant Y176F)
inhibition of HLA-A29 photoaffinity labelling (HLA-A29 competitor activity / binding) [1]: largely preserved the HLA-A29 competitor activity; also recorded: considerably diminishes binding

MAGE-3: HLA-A1 restricted MAGE-3 peptide 168-176
inhibition of HLA-A29 photoaffinity labelling (HLA-A29 competitor activity / binding) [1]: approximately 80%
inhibition of HLA-A1 photoaffinity labelling [5, 7]: about 98%
inhibition of HLA-A1 photoaffinity labelling ([5]; labelling with SEQ ID NO: 1 on C1R/A1 cells, 300 fold molar excess of competitor): completely inhibited

MAGE-3 variant substitution in position 2 with phenylalanine: MAGE-3 peptide 168-176 with position 2 replaced by phenylalanine (EFDPIGHLY; UniProt P43357 168-176, looked up, variant V169F)
inhibition of HLA-A29 photoaffinity labelling (HLA-A29 competitor activity / binding) [1]: increased
